Read-outs that look alike come from different tables or passages of the source. Marks after values point to notes of the source that are not given here.
How the values were obtained:
male Fischer 344 rats [1] = conditions: ref Patel et al., 2008, cited from earlier work
male Fischer 344 rats [2] = experiment: Serum alanine aminotransferase; type: in vivo; conditions: 24 h
male Fischer 344 rats [3] = experiment: Kidney weight 24 h after a single i.p. dose; type: in vivo; conditions: i.p. in corn oil, mean ± SE, N = 3–4
male Fischer 344 rats [4] = experiment: Blood urea nitrogen; type: in vivo; conditions: for Blood urea nitrogen: i.p. in corn oil, 24 h, mean ± SE, N = 3–4
male Fischer 344 rats [5] = experiment: Urine volume after a single i.p. dose; type: in vivo; conditions: i.p. in corn oil, mean ± SE, N = 3–4
male Fischer 344 rats [6] = experiment: Liver weight 24 h after a single i.p. dose; type: in vivo; conditions: i.p. in corn oil, mean ± SE, N = 3–4
male Fischer 344 rats [7] = experiment: Six-hour urine protein content after a single i.p. dose; type: in vivo; conditions: i.p. in corn oil, mean ± SE, N = 3–4
male Fischer 344 rats [8] = experiment: Liver histology; type: in vivo; conditions: 24 h
male Fischer 344 rats [9] = experiment: Kidney histology; type: in vivo; conditions: all doses evaluated, i.p., 24 h, vs corn oil
male Fischer 344 rats [10] = experiment: Clinical observation 24 h after dosing; type: in vivo, rat; conditions: 0.6 mmol/kg i.p., 24 h after dosing (sluggish movements and low body temperatures)
[11] = dose 0.2 (head mg/kg; text mmol/kg)
[12] = dose 0.4 (head mg/kg; text mmol/kg)
[13] = dose 0.6 (head mg/kg; text mmol/kg)
[14] = dose 1.0 (head mg/kg; text mmol/kg)

| Structure (SMILES) | ALT elevation compared to corn oil controls (male Fischer 344 rats [2]; 0.6 mmol/kg i.p.) | Kidney weight (male Fischer 344 rats [3]; [11]) | Kidney weight (male Fischer 344 rats [3]; [12]) | Kidney weight (male Fischer 344 rats [3]; [13]) | Blood urea nitrogen (male Fischer 344 rats [4]; [11]) | Blood urea nitrogen (male Fischer 344 rats [4]; [12]) | Blood urea nitrogen (male Fischer 344 rats [4]; [13]) | Twenty-four-hour urine volume (male Fischer 344 rats [5]; [11]) | Twenty-four-hour urine volume (male Fischer 344 rats [5]; [12]) | Twenty-four-hour urine volume (male Fischer 344 rats [5]; [13]) | Liver weight (male Fischer 344 rats [6]; [11]) | Liver weight (male Fischer 344 rats [6]; [12]) | Liver weight (male Fischer 344 rats [6]; [13]) | Six-hour urine protein content (male Fischer 344 rats [7]; [11]) | Six-hour urine protein content (male Fischer 344 rats [7]; [12]) | Six-hour urine protein content (male Fischer 344 rats [7]; [13]) | Kidney morphology (male Fischer 344 rats [9]) | further results |
| --- | --- | --- | --- | --- | --- | --- | --- | --- | --- | --- | --- | --- | --- | --- | --- | --- | --- | --- |
| O=C1CSC(=O)N1c1cc(Cl)cc(Cl)c1 [DCPT, 3-(3,5-dichlorophenyl)-2,4-thiazolidinedione] | – | – | – | – | – | – | – | – | – | – | – | – | – | – | – | – | – | ALT values (male Fischer 344 rats [1]; 0.2 mmol/kg): 26.7 ± 6.6 SF units/ml; ALT values (male Fischer 344 rats [1]; 0.4 mmol/kg): 231.5 ± 50.0 SF units/ml; ALT values (male Fischer 344 rats [1]; 0.6 mmol/kg): 281.7 ± 103.0 SF units/ml; ALT values (male Fischer 344 rats [1]; 1.0 mmol/kg): 506.9 ± 99.4 SF units/ml |
| O=C(O)CSC(=O)Nc1cc(Cl)cc(Cl)c1 [DCTA, [[[(3,5-dichlorophenyl)amino]carbonyl]thio]acetic acid] | about 2 fold | 0.40 ± 0.01^b g/ 100% BW | 0.43 ± 0.01 *,^b,^c g/ 100% BW | 0.45 ± 0.01 *,^c g/ 100% BW | 21.0 ± 1.0^b mg/dl | 62.2 ± 11.2*,^c mg/dl | 67.8 ± 17.9*,^c mg/dl | 12.5 ± 3.8^b ml | 13.1 ± 2.4^b ml | 9.5 ± 5.0^b ml | 3.58 ± 0.21^b g/100% BW | 3.62 ± 0.05^b g/100% BW | 3.46 ± 0.17^b g/100% BW | 2.9 ± 0.9^b mg | 2.5 ± 0.4^b mg | 2.5 ± 1.1^b mg | did not exhibit obvious changes in kidney morphology | Change in serum ALT levels (male Fischer 344 rats [2]; 0.2 and 0.4 mmol/kg i.p.): no changes were noted; Increase in serum BUN concentrations (male Fischer 344 rats [4]; 0.4 and 0.6 mmol/kg, compared to corn oil and the 0.2 mmol/kg dose): about 3 fold; Liver morphology (male Fischer 344 rats [8]; 0.6 mmol/kg i.p.): nuclear condensation was apparent in some hepatocytes; Liver morphology (male Fischer 344 rats [8]; 0.2 and 0.4 mmol/kg i.p.): did not produce any significant changes; Clinical appearance (male Fischer 344 rats [10]): appeared to be moribund |
| O=C1CSC(=O)N1c1ccccc1 [PTZD, 3-phenyl-2,4-thiazolidinedione] | ~26 fold | 0.36 ± 0.01^d g/ 100% BW | 0.40 ± 0.00*,^e g/ 100% BW | 0.41 ± 0.01*,^e g/ 100% BW | 24.8 ± 1.9^d mg/dl | 24.1 ± 0.9^d mg/dl | 28.6 ± 2.0*,^d mg/dl | 6.1 ± 1.7^d ml | 11.5 ± 3.2^d ml | 12.5 ± 2.4^d ml | 3.69 ± 0.25^e g/100% BW | 3.68 ± 0.18^e g/100% BW | 4.08 ± 0.08^e g/100% BW | 2.1 ± 0.5^d mg | 2.1 ± 0.2^d mg | 3.4 ± 0.9^d mg | dilation of distal tubules and collecting tubules | Change in serum ALT levels (male Fischer 344 rats [2]; 0.2 mmol/kg i.p., vs corn oil): did not produce a significant change; ALT elevation compared to corn oil controls (male Fischer 344 rats [2]; 0.4 mmol/kg i.p.): approximately 7 fold; serum alanine aminotransferase (ALT) activity (male Fischer 344 rats [2]; 1.0 mmol/kg i.p. in corn oil, corn oil controls 36.0 ± 11.3): 1196.2 ± 133.6 Sigma-Frankel units/ml; ALT elevation compared to corn oil controls (male Fischer 344 rats [2]; 1.0 mmol/kg i.p.): ~33 fold; Kidney weight (male Fischer 344 rats [3]; [14]): 0.47 ± 0.01 *,^f g/ 100% BW; Blood urea nitrogen (male Fischer 344 rats [4]; [14]): 31.3 ± 2.4*,^d mg/dl; Twenty-four-hour urine volume (male Fischer 344 rats [5]; [14]): 22.6 ± 0.4*,^e ml; Liver weight (male Fischer 344 rats [6]; [14]): 4.24 ± 0.06*,^e g/100% BW; Six-hour urine protein content (male Fischer 344 rats [7]; [14]): 2.3 ± 0.6^d mg; Liver morphology (male Fischer 344 rats [8]; 0.2 mmol/kg i.p.): did not show any signs of hepatic damage; Liver morphology (male Fischer 344 rats [8]; 0.4 mmol/kg i.p.): some damage with granular and irregularly stained cytoplasm and indistinct nuclei; Liver morphology (male Fischer 344 rats [8]; 1.0 mmol/kg i.p.): larger necrotic lesions were present and an acute inflammatory response occurred |
